The source of these data is paper PMC8272136, “Discovery of New Pyrazolopyridine, Furopyridine, and Pyridine Derivatives as CDK2 Inhibitors: Design, Synthesis, Docking Studies, and Anti-Proliferative Activity” (Molecules, 2021).

Where “and” joins values, the source holds several entries; their conditions need not be identical. Equal entries are not always repeated. Where two headings read alike, the source gives them in different places.

Series [1] deals with HCT-116 (human colorectal carcinoma) cells. The experiment in a line: MTT cytotoxicity assay, HCT-116. Type of series: cell-based. The following applies: 48 h, read-out: IC50 (µM) ± SD HCT-116. The method, then:
(§1) In this study, ten compounds were examined in vitro for their activities against HCT-116, MCF-7, HepG2, and A549 human cancer cells using the MTT assay. The percentages of intact cells were calculated and compared to those of the control. The activities of these compounds against the four cell lines were compared to the activity of doxorubicin as well. […] In order to study the efficacy of the synthesized compounds, a comparison of the cytotoxic effect of each compound has been related to the cytotoxicity of the reference drug as follows.
(§2) Cell cultures of HCT-116 (human colorectal carcinoma), MCF-7 (human breast adenocarcinoma), HepG2 (human hepatocellular carcinoma), and A549 (human lung carcinoma) cell lines were purchased from the American Type Culture Collection (Rockville, MD, USA) and maintained in DMEM medium that was supplemented with 10% heat-inactivated FBS (fetal bovine serum), 100 U/mL penicillin, and […] streptomycin. The cells were grown at 37 °C in a humidified atmosphere of 5% CO2.
(§3) The anticancer activity against HCT-116, HepG2, A549, and MCF-7 human cancer cell lines was estimated using the 3-[4,5-dimethyl-2-thiazolyl)-2,5-diphenyl-2H-tetrazolium bromide (MTT) assay, which is based on the reduction of the tetrazolium salt by mitochondrial dehydrogenases in viable cells. Cells were dispensed in a 96-well sterile microplate (5 × 10^4 cells/well) and incubated at 37 °C with a series of different concentrations, in DMSO, of each tested compound or doxorubicin (positive control) for 48 h in a serum-free medium prior to the MTT assay. After incubation, media were carefully removed, and 40 µL of MTT (2.5 mg/mL) were added to each well and then incubated for an additional 4 h. The purple formazan dye crystals were solubilized by the addition of 200 µL of DMSO. The absorbance was measured at 570 nm using a Spectra Max Paradigm Multi-Mode microplate reader. The relative cell viability was expressed as the mean percentage of viable cells compared to the untreated control cells. All experiments were conducted in triplicate and repeated on three different days. All the values were represented as mean ± SD. IC50s were determined by probit analysis by SPSS Incprobit analysis (IBM Corp., Armonk, NY, USA).
In general terms: Tetrazolium assays rely on reduction of a dye to a coloured formazan, in cell work by metabolically active cells.

Series [2] concerns the target T1, CDK2/cyclin A2 protein kinase (Homo sapiens, UniProt P24941). Details: method as in PMID 33390512, PMID 22119131. Particulars: external test set of QSAR model, reported compounds V, VI; read-out: Experimental Activity (IC50/μM); cited from earlier work.
In series [3] the test system is MCF-7 (human breast adenocarcinoma) cells. The series can be described thus: MTT cytotoxicity assay, MCF-7. The following applies: MCF7, 48 h, read-out: IC50 (µM) ± SD MCF-7. It counts as cell-based. The method, then:
as §1, §2, §3

The test system of series [4] is A549 (human lung carcinoma) cells. The experiment in a line: MTT cytotoxicity assay, A549. The following applies: 48 h, read-out: IC50 (µM) ± SD A549. Type of series: cell-based. As for the experimental part: as §1, §2, §3
The target in series [5] is T1, CDK2/cyclin A2 protein kinase. The experiment in a line: CDK2/cyclin A2 kinase assay (Promega Kinase-Glo Plus luminescence kit). It counts as biochemical. An excerpt:
It measures kinase activity by quantitating the amount of ATP remaining in solution following a kinase reaction. The luminescent signal from the assay is correlated with the amount of ATP present and is inversely correlated with the amount of kinase activity. […] The computer software Graphpad Prism was used for analyzing the luminescence data. The difference between luminescence intensities in the absence of CDK2/cyclin A2 protein kinase (Lut) and in the presence of kinase (Luc) was defined as 100% activity (Lut − Luc). Using luminescence signal (Lu) in the presence of the compound, the percentage of activity was calculated as: % activity = {(Lut − Lu)/(Lut − Luc)} × 100%, where Lu = the luminescence intensity in the presence of the compound.

Series [6] deals with HepG2 (human hepatocellular carcinoma) cells. The series can be described thus: MTT cytotoxicity assay, HepG2. Particulars: 48 h, read-out: IC50 (µM) ± SD HepG2. It counts as cell-based. The method, then:
as §1, §2, §3

Where [7] appears, read: CDK2/cyclin A2, Kinase-Glo Plus luminescence, read-out: CDK2 IC50 (µM) ± SD.

Regarding `COc1cccc2c1C(=O)c1c(O)c3c(c(O)c1C2=O)C[C@@](O)(C(=O)CO)C[C@@H]3O[C@H]1C[C@H](N)[C@H](O)[C@H](C)O1` [Doxorubicin, reference compound], in series [1], the IC50 was found to be 40 ± 3.9 µM.

For the compound `N#Cc1c(N)nc2[nH]c(=S)sc2c1-c1cccs1` [VI], in series [2], the IC50 is 0.139 µM.

In the case of `Oc1nc(-c2cccs2)c2sc(=S)[nH]c2n1` [V], the IC50 in series [2] was 0.743 µM.

Turning to `N#Cc1c(-c2cccs2)cc(-c2ccc3ccccc3c2)[nH]c1=O` [compound 1, 6-(naphthalen-2-yl)-2-oxo-4-(thiophen-2-yl)-1,2-dihydropyridine-3-carbonitrile], the IC50 stood at 47 ± 4.5 µM in series [3]; 39.1 ± 4.2 µM in series [1]; 60.6 ± 4.8 µM in series [4]; 0.57 ± 0.1 µM in series [5] (setting [7]); 27.9 ± 3.1 µM in series [6].

A word on the melting point: it is the temperature of the solid-liquid transition. On to `N#Cc1c(-c2cccs2)cc(-c2ccc3ccccc3c2)nc1OC(=O)CCl` [compound 2, 3-Cyano-6-(naphthalen-2-yl)-4-(thiophen-2-yl)pyridin-2-yl 2-chloroacetate], for which the melting point is 165 to 166 °C. Also, in series [3], the IC50 was 21.3 ± 3.1 µM. In addition, in series [1], the IC50 came out at 43.5 ± 4.5 µM. Further, in series [4], the IC50 was found to be 70.7 ± 4.1 µM. Further, the IC50 in series [5] (setting [7]) amounted to 1.79 ± 0.1 µM. For the same compound, in series [6], the IC50 stood at 29.4 ± 3.5 µM.

With `N#Cc1c(-c2cccs2)cc(-c2ccc3ccccc3c2)nc1OC1=NC(=S)NC1` [compound 3, 6-(Naphthalen-2-yl)-4-(thiophen-2-yl)-2-((2-thioxo-2,5-dihydro-1H-imidazol-4-yl)oxy)nicotinonitrile], the melting point fell in the range of 172 to 173 °C. Moreover, in series [3], the IC50 was determined as 37.3 ± 4.1 µM. The IC50 in series [1] worked out at 49 ± 5.1 µM. Besides, the IC50 in series [4] came out at 57.4 ± 4.5 µM. In addition, in series [5] (setting [7]), the IC50 is 1.01 ± 0.1 µM. For the same compound, the IC50 in series [6] worked out at 44.8 ± 4.1 µM.

Regarding `N#Cc1c(-c2cccs2)cc(-c2ccc3ccccc3c2)nc1Cl` [compound 4, 2-chloro-6-(naphthalen-2-yl)-4-(thiophen-2-yl)nicotinonitrile], the IC50 is 46.2 ± 4.1 µM in series [3]; 45.9 ± 4.1 µM in series [1]; 67.2 ± 5.1 µM in series [4]; 0.24 µM and 0.236 µM in series [5] (setting [7]); 42.9 ± 3.9 µM in series [6].

As for `COc1nc(-c2ccc3ccccc3c2)cc(-c2cccs2)c1C#N` [compound 5, 2-Methoxy-6-(naphthalen-2-yl)-4-(thiophen-2-yl)nicotinonitrile], the melting point was in the range of 125 to 126 °C. The IC50 in series [3] turned out to be 55.5 ± 4.5 µM. Further, the IC50 in series [1] was determined as 33.8 ± 3.5 µM. Also, the IC50 in series [4] came out at 47.6 ± 4.5 µM. In addition, the IC50 in series [5] (setting [7]) amounted to 3.53 ± 0.2 µM. Also, in series [6], the IC50 came to 27.2 ± 3.1 µM.

With `N#Cc1c(-c2cccs2)cc(-c2ccc3ccccc3c2)nc1Nc1ccccc1` [compound 6, 6-(Naphthalen-2-yl)-2-(phenylamino)-4-(thiophen-2-yl)nicotinonitrile], the melting point fell in the range of 130 to 131 °C.

For the compound `N#Cc1c(-c2cccs2)cc(-c2ccc3ccccc3c2)[nH]c1=S` [compound 7], the IC50 stood at 27.4 ± 2.4 µM in series [3]; 37.8 ± 3.9 µM in series [1]; 36.8 ± 4.1 µM in series [4]; 1.27 ± 0.1 µM in series [5] (setting [7]); 22.7 ± 2.9 µM in series [6].

`Nc1n[nH]c2nc(-c3ccc4ccccc4c3)cc(-c3cccs3)c12` [compound 8, 6-(Naphthalen-2-yl)-4-(thiophen-2-yl)-1H-pyrazolo[3,4-b]pyridin-3-amine] returned a melting point of 175 to 176 °C. Also, the IC50 in series [3] came out at 19.3 ± 2.1 µM. In addition, the IC50 in series [1] worked out at 33.7 ± 3.3 µM. In addition, in series [4], the IC50 turned out to be 43.8 ± 4.1 µM. Also, in series [5] (setting [7]), the IC50 is 0.65 µM and 0.651 µM. For the same compound, the IC50 in series [5] (external test set of QSAR model, compound 8, CDK2, read-out: Experimental Activity (IC50/μM)) was 0.651 µM. Besides, the IC50 in series [6] amounted to 29.1 ± 3.5 µM.

Regarding `N#Cc1c(-c2cccs2)cc(-c2ccc3ccccc3c2)nc1SC(=O)CCl` [compound 11, S-(3-Cyano-6-(naphthalen-2-yl)-4-(thiophen-2-yl)pyridin-2-yl)2-chloroethanethioate], the melting point was in the range of 160 to 161 °C. The IC50 in series [3] came to 46.4 ± 4.3 µM. Further, the IC50 in series [1] amounted to 31.7 ± 3.5 µM. Also, the IC50 in series [4] was determined as 56.9 ± 4.6 µM. For the same compound, in series [5] (setting [7]), the IC50 was 0.5 µM and 0.504 µM. In series [6], the IC50 was 27.6 ± 3.3 µM.

In the case of `CCOC(=O)COc1nc(-c2ccc3ccccc3c2)cc(-c2cccs2)c1C#N` [compound 13], the IC50 was 37.6 ± 3.5 µM in series [3]; 32.4 ± 3.1 µM in series [1]; 45.9 ± 4.3 µM in series [4]; 4.45 ± 0.2 µM in series [5] (setting [7]); 30.2 ± 3.7 µM in series [6].

In the case of `CCOC(=O)c1oc2nc(-c3ccc4ccccc4c3)cc(-c3cccs3)c2c1N` [compound 14, Ethyl-3-amino-6-(naphthalen-2-yl)-4-(thiophen-2-yl)furo[2,3-b]pyridine-2-carboxylate], the melting point lay in the range of 185 to 186 °C. The IC50 in series [3] is 26.1 ± 3.9 µM. Also, in series [1], the IC50 is 31.3 ± 3.3 µM. For the same compound, the IC50 in series [4] was found to be 56.5 ± 4.8 µM. Further, in series [5] (setting [7]), the IC50 is 0.93 µM and 0.928 µM. In addition, the IC50 in series [6] worked out at 27.9 ± 3.5 µM.

Compound `O=c1[nH]cnc2c1oc1nc(-c3ccc4ccccc4c3)cc(-c3cccs3)c12` [compound 15, 7-(Naphthalen-2-yl)-9-(thiophen-2-yl)pyrido[3′,2′:4,5]furo[3,2-d]pyrimidin-4(3H)-one] yielded a melting point of 197 to 198 °C.
